# Measurements from US6821980B1, “Substituted 5-benzyl-2,4-diaminopyrimidines” (Basilea Pharmaceutica AG, priority 1999, dated 2004).
# Like-named read-outs stand apart in the source and are kept apart here.
# Legend:
# [1] = target: T1, purified DHFR of strain Sp1/1 of Streptococcus pneumoniae (Streptococcus pneumoniae serotype 4, UniProt Q54801); format: biochemical; conditions: IC50 against purified DHFR of strain Sp1/1
# T1 sequence (Q54801 1-168 I100L): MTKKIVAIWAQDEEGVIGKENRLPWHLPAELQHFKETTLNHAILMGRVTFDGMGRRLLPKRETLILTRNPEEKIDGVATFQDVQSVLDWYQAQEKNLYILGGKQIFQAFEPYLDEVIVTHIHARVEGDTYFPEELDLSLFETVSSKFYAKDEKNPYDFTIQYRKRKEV
# [2] = system: Staphylococcus aureus 101; assay: MIC against Staphylococcus aureus 101; format: cell-based; conditions: Staphylococcus aureus 101, MRSA- and trimethoprim-resistant, clinical isolate; for MIC: read-out: MIC Sa101
# [3] = target: purified DHFR of strain 157/4696 of Staphylococcus aureus (Staphylococcus aureus, UniProt P13955); assay: biochemical
# [4] = system: Streptococcus pneumoniae 1/1; assay: MIC against Streptococcus pneumoniae 1/1; format: cell-based; conditions: Streptococcus pneumoniae 1/1, trimethoprim- and penicillin-resistant, serotype 6, clinical isolate; for MIC: read-out: MIC Sp1/1
# [5] = Table 2, IC50 against purified DHFR of strain 157/4696 (highly trimethoprim-resistant; clinical isolate), read-out: DHFR Sa1
# Sequence of purified DHFR of strain 157/4696 of Staphylococcus aureus (P13955 whole entry): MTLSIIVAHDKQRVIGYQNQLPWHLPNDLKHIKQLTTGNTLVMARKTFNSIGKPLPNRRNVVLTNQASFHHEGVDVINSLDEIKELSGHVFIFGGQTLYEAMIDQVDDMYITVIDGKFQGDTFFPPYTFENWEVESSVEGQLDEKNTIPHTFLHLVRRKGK
Structure (SMILES),IC50 ([1]; Table 2),MIC ([2]; Table 2),IC50 [3],MIC ([4]; Table 2),IC50 ([1]; Table 1),MIC ([2]; Table 1),MIC ([4]; Table 1),MIC Sa101 ([2]; Table 2),"IC50 [3, 5]",MIC Sp1/1 ([4]; Table 2)
"CCCOc1cc(Cc2cnc(N)nc2N)cc(OCCC)c1-c1cccc(O)c1 [Example 52-, 4′-(2,4-Diamino-pyrimidin-5-ylmethyl)-2′,6′-digropobiphenyl-3-ol]",20 nM,8 µg/mL,5800 nM,1 µg/mL,–,–,–,–,–,–
"CCOc1cc(Cc2cnc(N)nc2N)cc(OS(=O)(=O)CC(C)(C)C)c1-c1ccc(OC)c(N)c1 [Example 37-b, 2,2-Dimethyl-propane-1-sulphonic acid 3′-amino-4-(2,4-diamino-pyrimidin-5-ylmethyl)-6-ethoxy-4′-methoxy-biphenyl-2-yl ester]",1.7 nM,4 µg/mL,260 nM,0.25 µg/mL,–,–,–,–,–,–
"CCOc1cc(Cc2cnc(N)nc2N)cc(OS(=O)(=O)C(C)C)c1-c1ccc(OC)c(N)c1 [Example 33-a, Propane-2-sulphonic acid 3′-amino-4-(2,4-diamino-pyrimidin-5-ylmethyl)-6-ethoxy-4′-methoxy-4-ylmethyl-biphenyl-2-yl ester]",12 nM,1 µg/mL,65 nM,1 µg/mL,–,–,–,–,–,–
"CCOc1cc(Cc2cnc(N)nc2N)cc(OCC)c1-c1ccc(C#N)cc1 [Example 04-a, 4′-(2,4-Diamino-pyrimidin-5-ylmethyl)-2′,6′-diethoxy-biphenyl-4-carbonitrile]",82 nM,8 µg/mL,2700 nM,4 µg/mL,–,–,–,–,–,–
"CCOc1cc(Cc2cnc(N)nc2N)cc(OCC)c1-c1ccc(CNCCF)cc1 [Example 04-ag, 5-{2,6-Diethoxy-4′-[(2-fluoro-ethylamino)-methyl]-biphenyl-4-ylmethyl}-pyrimidine-2,4-diamine]",350 nM,8 µg/mL,1800 nM,8 µg/mL,–,–,–,–,–,–
"CCOc1cc(Cc2cnc(N)nc2N)cc(OCC)c1-c1ccc2[nH]ccc2c1 [Example 02-d, 5-(3,5-Diethoxy-4-(1H-indol-5-yl)-benzyl)-pyrimidine-2,4-diamine]",35 nM,8 µg/mL,1400 nM,1 µg/mL,–,–,–,–,–,–
"CCOc1cc(Cc2cnc(N)nc2N)cc(OS(=O)(=O)CC(C)(C)C)c1-c1ccc(O)cc1 [Example 15-h, 2,2-Dimethyl-propane-1-sulphonic acid 4-(2,4-diamino-pyrimidin-5-ylmethyl)-6-ethoxy-4′-hydroxa-biphenyl-2-yl ester]",4.1 nM,4 µg/mL,920 nM,0.25 µg/mL,–,–,–,–,–,–
"CCOc1cc(Cc2cnc(N)nc2N)cc(OS(=O)(=O)C2CCOCC2)c1-c1cccc(N)c1 [Example 41-c, Tetrahydropyran-4-sulphonic acid 3′-amino-4-(2,4-diamino-pyrimidin-5-ylmethyl)-6-ethoxy-biphenyl-2-yl ester]",4.2 nM,4 µg/mL,43 nM,0.5 µg/mL,–,–,–,–,–,–
"CCOc1cc(Cc2cnc(N)nc2N)cc(OS(=O)(=O)C(C)C)c1-c1ccc(N)cc1 [Example 18, Propane-2-sulphonic acid 4′-amino-4-(2,4-diamino-pyrimidin-5-ylmethyl)-6-ethoxy-biphenyl-2-yl ester]",–,–,39 nM,–,5.6 nM,2 µg/mL,1 µg/mL,–,–,–
CCOc1cc(Cc2cnc(N)nc2N)cc(OS(=O)(=O)C(C)CC)c1-c1ccc(OCCO)cc1 (centres unmarked) [Example 61-b],11 nM,2 µg/mL,210 nM,1 µg/mL,–,–,–,–,–,–
"CCOc1cc(Cc2cnc(N)nc2N)cc(OS(=O)(=O)N(C)CC)c1-c1ccc(N)c(F)c1 [Example 28-b, N-Ethyl-N-methyl-sulphamic acid 4′-amino-4-(2,4-diamino-pyrimidin-5-ylmethyl)-6-ethoxy-3′-fluoro-biphenyl-2-yl ester]",6.8 nM,2 µg/mL,320 nM,1 µg/mL,–,–,–,–,–,–
"CCOc1cc(Cc2cnc(N)nc2N)cc(OS(=O)(=O)C2CCOCC2)c1-c1ccc(N)c(C)c1 [Example 41-a, Tetrahydropyran-4-sulphonic acid 4′-amino-4-(2,4-diamino-pyrimidin-5-ylmethyl)-6-ethoxy-3′-methyl-biphenyl-2-yl ester]",0.3 nM,2 µg/mL,55 nM,0.5 µg/mL,–,–,–,–,–,–
"CCOc1cc(Cc2cnc(N)nc2N)cc(OCC)c1-c1cccc(N)c1 [Example 2a, 5-(3′-Amino-2,6-diethoxy-biphenyl-4-ylmethyl)-pyrimidine-2,4-diamine]",–,–,750 nM,–,30 nM,8 µg/mL,4 µg/mL,–,–,–
"CCOc1cc(Cc2cnc(N)nc2N)cc(OS(=O)(=O)C2CCC2)c1-c1ccc(N)c(F)c1 [Example 40-b, Cylobutane-sulphonic acid 4′-amino-4-(2,4-diamino-pyrimidin-5-ylmethyl)-6-ethoxy-3′-fluoro-4-ylmethyl-biphenyl-2-yl ester]",27 nM,–,–,–,–,–,–,2 µg/mL,310 nM,1 µg/mL
"CCOc1cc(Cc2cnc(N)nc2N)cc(OS(=O)(=O)N(C)C2CC2)c1-c1ccc(N)c(C)c1 [Example 27-c, N-Cyclopropyl-N-methyl-sulphamic acid 4′-amino-4-(2,4-diamino-pyrimidin-5-ylmethyl)-6-ethoxy-3′-methyl-biphenyl-2-yl ester]",2.6 nM,1 µg/mL,180 nM,1 µg/mL,–,–,–,–,–,–
"CCOc1cc(Cc2cnc(N)nc2N)cc(OC2CCC2)c1-c1cccc(N)c1 [Example 07-e, 5-(3′-Amino-6-qdobutoxy-2-ethoxy-biphenyl-4-ylmethyl)-pyrimidine-2,4-diamine]",28 nM,4 µg/mL,640 nM,1 µg/mL,–,–,–,–,–,–
"CCOc1cc(Cc2cnc(N)nc2N)cc(OS(=O)(=O)N(C)C(C)C)c1-c1cccc(N)c1 [Example 19-d, N-Isopropyl-N-methyl-sulphamic acid 3′-amino-4-(2,4-diamino-pyrimidin-5-ylmethyl)-6-ethoxy-biphenyl-2-yl ester]",8.3 nM,2 µg/mL,55 nM,2 µg/mL,–,–,–,–,–,–
"CCOc1cc(Cc2cnc(N)nc2N)cc(OS(=O)(=O)C(C)C)c1-c1cc(N)cc(F)c1 [Example 33-c, Propane-2-sulphonic acid 3′-amino-4-(2,4-diamino-pyrimidin-5-ylmethyl)-6-ethoxy-5′-fluoro-4-ylmethyl-biphenyl-2-yl ester]",14 nM,–,–,–,–,–,–,2 µg/mL,100 nM,2 µg/mL
"CCOc1cc(Cc2cnc(N)nc2N)cc(OCC2(C)CC2)c1-c1ccc(O)cc1 [Example 08-o, 4′-(2,4-Diamino-pyrimidin-5-ylmethyl)-6′-ethoxy-2′-[(1-methyl-cyclopropyl)-methoxy]-biphenyl-4-ol]",51 nM,4 µg/mL,1400 nM,2 µg/mL,–,–,–,–,–,–
"CCOc1cc(Cc2cnc(N)nc2N)cc(OCC(C)C)c1-c1ccc(OC)cc1 [Example 09-g, 5-(2-Ethoxy-6-isobutox-4′-methoxy-biphenyl-4-ylmethyl)-pyrimidine-2,4-diamine]",50 nM,4 µg/mL,1600 nM,4 µg/mL,–,–,–,–,–,–
"CCOc1cc(Cc2cnc(N)nc2N)cc(OS(=O)(=O)C(C)C)c1-c1cccc(N)c1 [Example 14c, Propane-2-sulphonic acid 3′-amino-4-(2,4-diamino-pyrimidin-5-ylmethyl)-6-ethoxy-biphenyl-2-yl ester]",–,–,61 nM,–,20 nM,1 µg/mL,1 µg/mL,–,–,–
"CCOc1cc(Cc2cnc(N)nc2N)cc(OCC(C)(C)CCC#N)c1-c1ccc(O)cc1 [Example 48-, 5-[4-(2,4-Diamino-pyrimidin-5-ylmethyl) 6-ethoy-4′-hydro-biPhenyl-2-xyloxy]-4,4-dimethyl-pentanenitrile]",30 nM,4 µg/mL,750 nM,2 µg/mL,–,–,–,–,–,–
"CCOc1cc(Cc2cnc(N)nc2N)cc(OCC)c1-c1ccc2cc[nH]c2c1 [Example 02-e, 5-[3,5-Diethoxy-4-(1H-indol-6-yl)-benzl]-pyrimidine-2,4-diamine]",22 nM,4 µg/mL,1000 nM,2 µg/mL,–,–,–,–,–,–
"CCOc1cc(Cc2cnc(N)nc2N)cc(OS(=O)(=O)CC(C)C)c1-c1ccc(OCCOC)cc1 [Example 63-, 2-Methyl-propane-1-sulphonic acid 4-(2,4-diamino-pyrimidin-5-ylmethyA)-6-ethoxy-4′-(2-methox-ethoxy)-biphenyl-2-yl ester]",1.8 nM,4 µg/mL,380 nM,1 µg/mL,–,–,–,–,–,–
"CCOc1cc(Cc2cnc(N)nc2N)cc(OS(=O)(=O)C2CCC2)c1-c1cccc(N)c1 [Example 40-a, Cyclobutane-sulphonic acid 3′-amino-4-(2,4-diamino-pyrimidin-5-ylmethyl)-6-ethoxy-biphenyl-2-yl ester]",6.5 nM,2 µg/mL,52 nM,1 µg/mL,–,–,–,–,–,–
"CCOc1cc(Cc2cnc(N)nc2N)cc(OCC)c1-c1cccc([N+](=O)[O-])c1 [Example 02-z, 5-(2,6-Diethoxy-3′-nitro-biphenyl-4-ylmethyl)-pyrimidine-2,4-diamine]",60 nM,8 µg/mL,1600 nM,8 µg/mL,–,–,–,–,–,–
